The text below walks through data of publication PMC7613620, “Reaction hijacking of tyrosine tRNA synthetase as a whole-of-life-cycle antimalarial strategy” (Science (New York, N.Y.), 2022).

SMILES strings stand for the structures. Read-outs that look alike come from different tables or passages of the source.

Assay type in all cases: cell-based, Plasmodium falciparum
Assay [1] deals with protein translation in P. falciparum (Cam3.II-rev) schizonts. The experiment in a line: Protein translation assay (O-propargyl-puromycin incorporation). To be noted: Plasmodium falciparum, read-out: IC50 (Translation). On the procedure: (§1) 723 then fixed for 10 minutes (4% formaldehyde/0.02% glutaraldehyde in PBS). The click reaction was
(§2) 724 performed for 1 h in the presence of CuSO4 (0.1 mM), THPTA (0.5 mM) and sodium ascorbate (5 mM) to
(§3) 725 bring about azide-alkyne cycloaddition to Alexa Fluor 488 azide (0.1 µM). Flow cytometry was performed
(§4) 726 using the FITC and Cy™5.5 channels to detect the Alexa Fluor 488 and PI, respectively.
(§5) 729 Cam 3.II_Rev (25) trophozoite-infected RBCs (25-30 h p.i.) were incubated with inhibitor for 3 h at 10%
(§6) 730 hematocrit and 5% parasitemia. The RBC pellet was washed 3 x in PBS + cOmplete. Cells were centrifuged
(§7) 731 at 380 x g for 5 min and the pelleted cells lysed by resuspension in PBS + 0.05% saponin for 5 min on ice.

Assay [2] deals with P. falciparum (Cam3.II-rev) schizont stage. As to the kind of experiment: 3 h drug pulse viability assay. Conditions: Plasmodium falciparum, 3 h, read-out: IC50 (Viability). On the procedure:
(§8) 553 Sigma-Aldrich) for 48-72 h. For drug pulse assays, tightly synchronized parasites (1-1.5% parasitemia,
(§9) 554 0.2% final hematocrit) were added to the plates and incubated for 3 h. Drugs were removed and the
(§10) 555 parasitemia assessed in the trophozoite stage of the next cycle.
(§11) 557 Compounds were tested against a range of drug resistant field isolates and laboratory strains using a
(§12) 558 modified [3H]-hypoxanthine incorporation assay, as previously reported (46). Field isolates 7G8, Cam3.1,
(§13) 559 Dd2, K1, TM90C2B and NF54 were obtained from MR4 (www.beiresources.org).
(§14) 561 Mammalian cell culture experiments
(§15) 562 The HepG2 (Human hepatocyte carcinoma) cell line was procured from ATCC (American Type
(§16) 563 Culture Collection, Manassas, USA; HB-8065) and viability assessed using Cell Titer-GLO luminescent
(§17) 564 cell viability assay reagents (Promega, catalogue number: G7570) (47, 48). For the assay, 2000 cells/well
(§18) 565 were plated in 384-well plates 24 h prior to the experiment and incubated at 37°C in a CO2 incubator. The
(§19) 566 medium was removed and cells were treated with fresh medium containing either vehicle (0.5% DMSO)
(§20) 567 or serially diluted test compounds or doxorubicin (1.3 nM to 25 µM) in a final volume of 50 µl/well and
(§21) 568 further incubated for 72 h at 37°C in a CO2 incubator.
(§22) 569 were treated with 5 µl of 1% Triton X-100 (final assay conc. 0.1%). Following incubation, 25 µl of medium
(§23) 570 was discarded and 25 µl of Cell Titer-GLO reagent was added to each well and the plate was kept on a plate
(§24) 571 shaker for 15 min at 25°C with shaking at 300 rpm. Luminescence signals were measured in a Spectramax
(§25) 572 M5 reader (Molecular Devices).
(§26) 574 H1650 is a human lung cancer derived ATG7-null cell line (49) that can be used to assess effects on targets
(§27) 576 adenocarcinoma; bronchoalveolar carcinoma). Other cells lines used are: H460 (NCI-H460; human lung;
(§28) 577 carcinoma; large cell lung cancer; ATCC: HTB-177); and HCT116 (human colon; colorectal carcinoma;
578 ATCC: CCL-247; Lot : 5056139). […]
580 inhibitors and cell viability was assessed by comparing the ATP content in compound-treated wells with […]

Assay [3] has as its system PfYRS knockdown line. The experiment in a line: Growth inhibition of aptamer-regulatable PfYRS knockdown line (luciferase, 72 h). To be noted: for IC50: Plasmodium falciparum, read-out: IC50 against the PfYRS knockdown line (control compounds); for Fold change in IC50 (high aTc/ no aTc), PfYRS knockdown line (control compounds): high aTc 500 nM.
From the text: 674 Generation and analysis of PfYRS knock-down transfectants
675 A conditional regulatable line for the cytosolic PfYRS (PF3D7_0807900) was generated by integrating the
676 gene regulatable system, TetR-DOZI-RNA aptamer module at the 3'-end of the target gene, in P. falciparum
677 parasites using CRISPR-Cas9 and homology-driven repair (55, 56). A line harbourbing an aptamer-
678 regulatable fluorescent protein (eYFP) integrated in the cg6 locus is used as the control (55). Transfection
679 into parasites was carried out by preloading RBCs with the donor vector as described previously (57).
680 Briefly, 50 μg of purified plasmid DNA was mixed with human RBCs and subjected to 8 square wave
681 electroporation pulses of 365 V for 1 ms each, separated by 0.1 s in a 0.2 cm cuvette. The plasmid DNA
682 preloaded cells were inoculated with NF54 expressing Cas9 and T7 RNA polymerase. […]
696 Stock solutions of ML901, DHA or borrelidin (Cayman Chemicals) were dispensed into 96-well U-bottom
697 BD Falcon™ plates and serially diluted in complete medium to yield final concentrations ranging from 20-
698 0.08 nM. Synchronous ring-stage YRScyt conditional knockdown line and the aptamer-regulatable control
699 line in varying aTc concentrations (high = 50 or 500 nM, low = 1 nM, and no aTc) were distributed into
700 the drug plate. Lowest drug treatment and a lethal dose of chloroquine (200 nM) served as reference
701 controls. Growth inhibition was analysed after 72 h using the Renilla-Glo(R) Luciferase Assay System (ref
702 no E2750 Promega) and the GloMax® Discover Multimode Microplate Reader (Promega), and IC50 values
703 were obtained from corrected dose-response curves using GraphPad Prism (version 8; GraphPad Software). […]
706 CRISPR/Cas9 was used to generate parasites encoding the S234C mutation in exon 2 of PfYRS, as shown
707 in Suppl Figure 6. Two guide RNAs (gRNA1: […] and gRNA2:
708 […]) were selected using Benchling (benchling.com), and cloned into the
709 pDC2-coCas9-gRNA plasmid essentially as described previously (58). A donor template of 645 bp,
710 encompassing the majority of the 708 bp exon 2, was synthesized (ThermoFisher) and cloned into the
711 AatII/EcoRI sites of both the pDC2-coCas9-gRNA1 and pDC2-coCas9-gRNA2 plasmids. In addition to
712 the TCC>TGC (S234C) mutation, additional silent shield mutations were introduced to prevent gRNA-
713 Cas9 complex binding, as shown in Suppl Figure 6. Ring-stage P. falciparum parasites (Dd2 strain) at 10%
714 parasitemia (150 µL of packed cells) were transfected with 50 µg of plasmid DNA using a BioRad Gene
715 Pulser II (310 V, 950 µF), and selected with 5 nM WR99210 (Jacobus Pharmaceuticals) for 8 days, after
716 which culture was continued without drug pressure until transfectants were obtained. Clones of the
717 PfYRSS234C mutant parasites were isolated by limiting dilution and verified by Sanger sequencing.
719 Protein translation assay
720 P. falciparum Cam 3.II_Rev (25) schizont- (43-48 h p.i.) infected RBCs were pre-incubated with inhibitor
Using a modification of a published procedure (14), the
722 cells were labelled with O-propargyl-puromycin (OPP; 4 µM) for 1 h, washed 3x (PBS +3% serum) and
as §1, §2, §3, §4, §5, §6, §7

Assay [4] deals with P. falciparum (3D7). As to the kind of experiment: P. falciparum (3D7) culture growth inhibition, 72 h. To be noted: Plasmodium falciparum, read-out: Pf3D7 IC50(72h); P. falciparum 3D7, 72 h. On the procedure: (1 picture or pasted object on this page, not shown here)
as §8, §9, §10, §11, §12, §13, §14, §15, §16, §17, §18, §19, §20, §21, §22, §23, §24, §25, §26, §27, §28
578 ATCC: CCL-247; Lot : 5056139). Each of the cell lines was received from the American Type Culture
579 Collection (ATCC) and passaged twice before freezing. Cells were cultured in the presence or absence of
580 inhibitors and cell viability was assessed by comparing the ATP content in compound-treated wells with
581 that in DMSO-treated wells as previously described (11).
583 HeLa cells (human cervical adenocarcinoma; genome sequenced (Garvin Institute, Australia) and verified

In general, IC50 refers to the midpoint of a concentration-inhibition curve. For the compound `C[C@@H]1C[C@@H]([C@H](O)CC2CC(=O)NC(=O)C2)C(=O)[C@@H](C)C1` [cycloheximide], the IC50 in assay [1] is 2000 nM; in assay [2] it was 3200 nM.

For the compound `C[C@H]1[C@@H](O)O[C@@H]2O[C@@]3(C)CC[C@H]4[C@H](C)CC[C@@H]1[C@@]24OO3` [DHA, Dihydroartemisinin], the IC50 in assay [3] (high aTc (500 nM)) amounted to 1.1 ± 0.3 nM; in assay [3] (low aTc (1 nM)), 1.6 ± 0.5 nM; in assay [3] (no aTc) it was 1.2 ± 0.4 nM; in assay [4], 2.9 ± 0.2 nM. The “Fold change in IC50 (high aTc/ no aTc), PfYRS knockdown line (control compounds)” value in assay [3] is recorded as “no change”.

For `C[C@@H]1C[C@H](C)C[C@H](C)[C@@H](O)CC(=O)O[C@H]([C@@H]2CCC[C@H]2C(=O)O)C/C=C/C=C(/C#N)[C@H](O)[C@@H](C)C1` [borrelidin], the values for the IC50 in assay [3] (high aTc (500 nM)), in assay [3] (low aTc (1 nM)) and in assay [3] (no aTc) were 0.07 nM, 0.07 ± 0.01 nM and 0.07 ± 0.01 nM, respectively. Also, in assay [3], the “Fold change in IC50 (high aTc/ no aTc), PfYRS knockdown line (control compounds)” value is on record as “no change”.
